Measured values reported in PMC11758220, “Identification of a Privileged Scaffold for Inhibition of Sterol Transport Proteins through the Synthesis and Ring Distortion of Diverse, Pseudo-Natural Products” (ACS Central Science, 2025).

Legend:
Format in all cases: binding
Details in all cases: single dose, Dose = 10 µM
Aster-A = target: T1, Aster-A (Homo sapiens, UniProt Q96CP6); assay: Fluorescence polarisation (FP) competition with NBD-cholesterol, Aster-A
T1 construct: Aster-A(359-547); GST (PreScission-cleavable) (N, cleaved yes); made in house; host or cells: E. coli OverExpress C41
T1 sequence (Q96CP6 359-547): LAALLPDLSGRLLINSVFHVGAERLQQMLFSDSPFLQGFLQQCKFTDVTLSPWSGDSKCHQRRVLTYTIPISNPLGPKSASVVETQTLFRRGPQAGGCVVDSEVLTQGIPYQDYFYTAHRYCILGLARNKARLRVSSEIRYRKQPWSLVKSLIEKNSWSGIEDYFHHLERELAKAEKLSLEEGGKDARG
From the text: (§1) Protein expression constructs
(§2) Human ASTER domains of Aster-A(359-547), -B(364-552) and -C(318-504) were subcloned into a pGEX-6p-2rbs vector, thus introducing the cloning artifact ‘GPLGS’.3 The pGEX-6P-1-GST-OSBP(377- […]
(§3) a gift from James H. Hurley (University of California).4 The pHIS_2His6_Thrombin_STARD4(2-205;C75S) plasmid was a gift from Young Jun Im (Chonnam National University).5 STARD5A was a gift from Nicola Burgess-Brown (Addgene plasmid #42392; http://n2t.net/addgene:42392; […]
(§4) Protein expression and purification […]
(§5) vectors including an N-terminal PreScission-cleavable glutathione S-transferase (GST)-tag were expressed in Escherichia coli (E. coli) OverExpress C41 in Terrific Broth (TB) medium for 16 h at 18 °C after the induction with 0.1 mM isopropyl β-D-1-thiogalactopyranoside (IPTG). Cells were harvested at 3500 × g for 15 minutes and lysed by sonication in buffer containing 50 mM HEPES pH 7.5, 300 mM NaCl, 10 %v/v glycerol, 5 mM dithiothreitol (DTT), 0.1 %v/v Triton X-100 and protease inhibitor mix HP plus (Serva). The lysate was purified by affinity chromatography on a GSTrap FF column (Cytiva) using an ÄKTA Start (Cytiva) in buffer containing 50 mM HEPES pH 7.5, 300 mM NaCl, 10 %v/v glycerol, 5 mM DTT and 0.01 %v/v Triton X-100. The GST-tag was cleaved overnight on the column at 4 °C. The Aster sterol binding domains were further purified by size-exclusion chromatography (SEC) on a HiLoad 16/600 Superdex 75 pg (Cytiva) in buffer containing 20 mM HEPES pH 7.5, 300 mM NaCl, 10 %v/v […]
(§6) STARD5(6-213) harboring an N-terminal His6-Tag were expressed in E. coli BL21(DE3) in Luria-Bertani Broth (LB) medium for approximately 16 h at 18 °C after induction with 0.15 mM IPTG. Cells were harvested at 3500 × g for 15 minutes and lysed by sonication in buffer containing 50 mM HEPES pH 7.5, 150 mM NaCl, 5 %v/v glycerol, 5 mM DTT, 0.1 %v/v Triton X -100 and ethylenediaminetetraacetic acid (EDTA)-free protease inhibitor cocktail (Sigma-Aldrich). The cleared lysate was purified by affinity chromatography on a Ni-NTA Superflow Cartridge (Qiagen) using an ÄKTA Start (Cytiva) in buffer containing 50 mM HEPES pH 7.5, 150 mM NaCl, 5 %v/v glycerol, 5 mM DTT. START domains were eluted by using elution buffer containing 50 mM HEPES pH 7.5, 150 mM NaCl, 5 %v/v glycerol, 5 mM DTT and 500 mM imidazole. Proteins were further purified by SEC on a HiLoad 16/600 Superdex 75 pg (Cytiva) in buffer containing 20 mM HEPES pH 7.5, 150 mM NaCl, 5 %v/v glycerol and 2 mM DTT.
(§7) The ORP domain of human OSBP(377-807) in the pGEX-6p-1 vector with an N-terminal PreScission-cleavable GST-tag was expressed in E. coli OverExpress C41 in LB medium for 16 h at 18 °C after induction with 0.1 mM IPTG. Cells were harvested at 3500 × g for 15 minutes and lysed by sonication in buffer containing 20 mM HEPES pH 7.5, 300 mM NaCl, 10 %v/v glycerol, 5 mM DTT, 0.1 %v/v Triton X-100 and EDTA-free protease inhibitor cocktail (Sigma-Aldrich). The cleared lysate was purified by affinity chromatography on a GSTrap HF column (Cytiva) using an ÄKTA Start (Cytiva) in buffer containing 20 mM HEPES pH 7.5, 300 mM NaCl, 10 %v/v glycerol, 5 mM DTT. OSBP(377 -807) was eluted by using elution buffer containing 20 mM HEPES pH 7.5, 300 mM NaCl, 10 %v/v glycerol, 5 mM DTT and 10 mM reduced glutathione. Proteins were further purified by SEC on a HiLoad 16/600 Superdex 75 pg (Cytiva) using an ÄKTA Explorer (Cytiva) in buffer containing 20 mM HEPES pH 7.5, 150 mM NaCl, 10 %v/v glycerol and 2 mM DTT.
(§8) The ORP domains of human ORP1(534-950) in pET24b(+) and ORP2(49-480) in the pET24b(+) vector including an N-terminal His6-Tag were expressed in E. coli BL21(DE3) in TB medium for approximately 16 h at 18 °C after induction with 0.1 mM IPTG. Cells were collected at 3500 × g for 15 minutes and lysed by sonification in buffer containing 10 mM Tris-HCl pH 8, 300 mM NaCl, 5 % glycerol, 2 mM DTT, 0.1 % Triton X-100 and EDTA-free protease inhibitor cocktail (Sigma-Aldrich). The cleared […]

Aster-B = target: T2, Aster-B (Homo sapiens, UniProt Q3KR37); assay: Fluorescence polarisation (FP) competition with NBD-cholesterol, Aster-B
T2 construct: -B(364-552); GST (PreScission-cleavable) (N, cleaved yes); made in house; host or cells: E. coli OverExpress C41
T2 sequence (Q3KR37 364-552): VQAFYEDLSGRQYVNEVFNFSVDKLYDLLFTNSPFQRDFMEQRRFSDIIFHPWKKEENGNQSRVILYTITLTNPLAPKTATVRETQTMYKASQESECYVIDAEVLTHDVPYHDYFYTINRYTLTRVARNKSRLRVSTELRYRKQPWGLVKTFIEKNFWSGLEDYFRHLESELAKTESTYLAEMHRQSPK
From the text: as §1, §2, §3, §4, §5, §6, §7, §8

STARD3 = target: T3, STARD3 (Homo sapiens, UniProt Q14849); assay: Differential scanning fluorimetry (DSF), STARD3
T3 construct: STARD3(216-444); made in house; host or cells: E. coli BL21(DE3)
T3 sequence (Q14849 216-444): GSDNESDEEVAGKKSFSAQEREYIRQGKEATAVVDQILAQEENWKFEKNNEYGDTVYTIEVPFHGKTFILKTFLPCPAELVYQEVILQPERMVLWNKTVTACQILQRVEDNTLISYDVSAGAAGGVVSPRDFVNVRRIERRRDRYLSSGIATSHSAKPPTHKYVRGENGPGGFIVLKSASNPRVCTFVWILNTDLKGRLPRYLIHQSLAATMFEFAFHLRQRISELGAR
From the text: as §1, §2, §3, §4, §5, §6, §7, §8

Structure (SMILES): COc1ccc2c(c1)C(=O)N[C@]1(CCC[C@@H]3C[C@H](O)CC[C@@]31C)N2 [Compound 5c]
- Aster-A (FP) inhibition (Aster-A): -1%
- Aster-B (FP) inhibition (Aster-B): 10%
- inhibition at 10 µM (Aster-B): 12%
- STARD3 (DSF) ΔTm (STARD3): 0.0624 °C
- ΔTm at 10 µM (STARD3): 0.114 °C

Structure (SMILES): C[C@]12CC[C@@H](O)C[C@H]1CCc1nc3ccccc3nc12 [Compound 7a]
- inhibition at 10 µM (Aster-A): 14%
- inhibition at 10 µM (Aster-B): 23%
- ΔTm at 10 µM (STARD3): -0.1 °C

Structure (SMILES): Cc1cc2nc3c(nc2cc1C)[C@@]1(C)CC[C@@H](O)C[C@H]1CC3 [Compound 7b]
- inhibition at 10 µM (Aster-A): -1%
- inhibition at 10 µM (Aster-B): 7.5%
- ΔTm at 10 µM (STARD3): 0.0153 °C

Structure (SMILES): C[C@]12CC[C@@H](O)C[C@H]1CCc1nc3cc(F)c(F)cc3nc12 [Compound 7c]
- Aster-A (FP) inhibition (Aster-A): -1%
- Aster-B (FP) inhibition (Aster-B): 4%
- STARD3 (DSF) ΔTm (STARD3): -0.124 °C

Structure (SMILES): C[C@]12CC[C@@H](O)C[C@H]1CCc1nc3cc(Cl)c(Cl)cc3nc12 [Compound 7d]
- Aster-A (FP) inhibition (Aster-A): 1%
- Aster-B (FP) inhibition (Aster-B): 11%
- STARD3 (DSF) ΔTm (STARD3): -0.1 °C

Structure (SMILES): C[C@]12CC[C@@H](O)C[C@H]1CCc1nc3cc(Br)c(Br)cc3nc12 [Compound 7e]
- Aster-A (FP) inhibition (Aster-A): -1%
- Aster-B (FP) inhibition (Aster-B): 12%
- STARD3 (DSF) ΔTm (STARD3): 0.138 °C

Structure (SMILES): C[C@]12CC[C@@H](O)C[C@H]1CCc1sc(N)nc12 [Compound 8a]
- inhibition at 10 µM (Aster-A): -1%
- inhibition at 10 µM (Aster-B): 3.33%
- ΔTm at 10 µM (STARD3): 0.0829 °C

Structure (SMILES): Cc1nc2c(s1)CC[C@@H]1C[C@H](O)CC[C@]21C [Compound 8b]
- Aster-A (FP) inhibition (Aster-A): -1%
- Aster-B (FP) inhibition (Aster-B): 7.5%
- STARD3 (DSF) ΔTm (STARD3): 0.0139 °C

Structure (SMILES): C[C@]12CC[C@@H](O)C[C@H]1CCc1sc(-c3cccnc3)nc12 [Compound 8c]
- Aster-A (FP) inhibition (Aster-A): 0%
- Aster-B (FP) inhibition (Aster-B): 7%
- STARD3 (DSF) ΔTm (STARD3): 0.345 °C

Structure (SMILES): COc1ccc(-c2nc3c(s2)CC[C@@H]2C[C@H](O)CC[C@]32C)cc1 [Compound 8d]
- inhibition at 10 µM (Aster-A): -1%
- inhibition at 10 µM (Aster-B): 6%
- ΔTm at 10 µM (STARD3): 0.5 °C

Structure (SMILES): C[C@]12CC[C@@H](O)C[C@H]1CCc1sc(-c3ccc(F)cc3)nc12 [Compound 8e]
- Aster-A (FP) inhibition (Aster-A): -3%
- Aster-B (FP) inhibition (Aster-B): 8%
- STARD3 (DSF) ΔTm (STARD3): 0.0572 °C

Structure (SMILES): C[C@]12CC[C@@H](O)C[C@H]1CCc1[nH]c(-c3ccccc3)nc12 [Compound 9]
- inhibition at 10 µM (Aster-A): -2%
- inhibition at 10 µM (Aster-B): 9%
- ΔTm at 10 µM (STARD3): -0.0297 °C

Structure (SMILES): C[C@]12CC[C@@H](O)C[C@H]1CCc1c2[nH]c2ccccc12 [Compound 10a]
- Aster-A (FP) inhibition (Aster-A): 1%
- Aster-B (FP) inhibition (Aster-B): 7.5%
- STARD3 (DSF) ΔTm (STARD3): -0.188 °C

Structure (SMILES): C[C@]12CC[C@@H](O)C[C@H]1CCc1c2[nH]c2ccc(Br)cc12 [Compound 10b]
- Aster-A (FP) inhibition (Aster-A): -9%
- Aster-B (FP) inhibition (Aster-B): -2.5%
- STARD3 (DSF) ΔTm (STARD3): -0.0462 °C

Structure (SMILES): C[C@]12CC[C@@H](O)C[C@H]1CCc1c2[nH]c2ccc(Cl)cc12 [Compound 10c]
- Aster-A (FP) inhibition (Aster-A): 1%
- Aster-B (FP) inhibition (Aster-B): -5%
- STARD3 (DSF) ΔTm (STARD3): -0.121 °C

Structure (SMILES): C[C@]12CC[C@@H](O)C[C@H]1CCc1c2[nH]c2ccc(F)cc12 [Compound 10d]
- Aster-A (FP) inhibition (Aster-A): -8%
- Aster-B (FP) inhibition (Aster-B): 0.833%
- STARD3 (DSF) ΔTm (STARD3): -0.115 °C

Structure (SMILES): Cc1ccc2[nH]c3c(c2c1)CC[C@@H]1C[C@H](O)CC[C@]31C [Compound 10e]
- inhibition at 10 µM (Aster-A): -4%
- inhibition at 10 µM (Aster-B): 1.67%
- ΔTm at 10 µM (STARD3): 0.0774 °C

Structure (SMILES): COc1ccc2[nH]c3c(c2c1)CC[C@@H]1C[C@H](O)CC[C@]31C [Compound 10f]
- inhibition at 10 µM (Aster-A): 0%
- inhibition at 10 µM (Aster-B): 13%
- ΔTm at 10 µM (STARD3): -0.0471 °C

Structure (SMILES): CC12CCC(O)CC1CCc1c2[nH]c2ccc(C(F)(F)F)cc12 (centres unmarked) [Compound 10g]
- inhibition at 10 µM (Aster-A): -8%
- inhibition at 10 µM (Aster-B): -2.5%
- ΔTm at 10 µM (STARD3): 0.227 °C

Structure (SMILES): C[C@]12CC[C@@H](O)C[C@H]1CCc1c2[nH]c2ccc(I)cc12 [Compound 10h]
- Aster-A (FP) inhibition (Aster-A): 7%
- Aster-B (FP) inhibition (Aster-B): 32%
- STARD3 (DSF) ΔTm (STARD3): 0.1 °C

Structure (SMILES): C[C@]12CC[C@@H](O)C[C@H]1CCc1c2[nH]c2c(F)cc(Cl)cc12 [Compound 10i]
- inhibition at 10 µM (Aster-A): -8%
- inhibition at 10 µM (Aster-B): -4%
- ΔTm at 10 µM (STARD3): 0.0372 °C

Structure (SMILES): Cc1cc(C)c2c3c([nH]c2c1)[C@@]1(C)CC[C@@H](O)C[C@H]1CC3 [Compound 10j]
- inhibition at 10 µM (Aster-A): -2%
- inhibition at 10 µM (Aster-B): 16%
- ΔTm at 10 µM (STARD3): -0.108 °C

Structure (SMILES): CCOC(=O)c1ccc2[nH]c3c(c2c1)CC[C@@H]1C[C@H](O)CC[C@]31C [Compound 10k]
- Aster-A (FP) inhibition (Aster-A): 1%
- Aster-B (FP) inhibition (Aster-B): -4%
- STARD3 (DSF) ΔTm (STARD3): 0.08 °C
